# In US20140309192A1, “MODULATORS OF THE G PROTEIN-COUPLED MAS RECEPTOR AND THE TREATMENT OF DISORDERS RELATED THERETO” (ARENA PHARMACEUTICALS, INC., priority 2011, published 2014):
# Entries after “also recorded” stand apart in the source; their conditions may differ.
# Legend:
# [1] = system: Male Sprague Dawley rats; assay: Carrageenan-induced inflammatory paw swelling model; type: in vivo, rat; conditions: i.p. 30 minutes prior to λ-carrageenan; AR305352 1, 3 and 10 mg/kg; dexamethasone 2 mg/kg; 1, 2, 3, 6 and 24 hours
# Protocol: In a blinded and randomized fashion, rats were intraperitoneally dosed with a Mas receptor inverse agonist (AR305352, N-(4-chloro-2-(4-(3,3,3-trifluoropropyl)piperazin-1-yl)phenyl)-2,6-difluorobenzamide, see Zhang, T., et. al., Am J Physiol Heart Circ Physiol 302:H299-H311, (2012)) at 1, 3 and 10 mg/kg, 20% HPCD or 2 mg/kg of dexamethasone, 30 minutes prior to injection of 100 μl of saline or 100 μg of λ-carrageenan into the left or right foot pad of anesthetized animals. The difference in footpad width was measured using a caliper at 1, 2, 3, 6 and 24 hours post-injection.
# [2] = molecular target: Mas receptor; conditions: Dong, et al., Cell 106:619-632 (2001); cited from earlier work
# [3] = molecular target: T1, rat Mas receptor (Rattus norvegicus, UniProt P12526); assay: HTRF IP1 assay, HEK293 cells expressing rat Mas receptor; type: cell-based
# T1 construct: expressed in transfected cells; host or cells: HEK293 (ATCC CRL-1573)
# T1 sequence (P12526 1-324): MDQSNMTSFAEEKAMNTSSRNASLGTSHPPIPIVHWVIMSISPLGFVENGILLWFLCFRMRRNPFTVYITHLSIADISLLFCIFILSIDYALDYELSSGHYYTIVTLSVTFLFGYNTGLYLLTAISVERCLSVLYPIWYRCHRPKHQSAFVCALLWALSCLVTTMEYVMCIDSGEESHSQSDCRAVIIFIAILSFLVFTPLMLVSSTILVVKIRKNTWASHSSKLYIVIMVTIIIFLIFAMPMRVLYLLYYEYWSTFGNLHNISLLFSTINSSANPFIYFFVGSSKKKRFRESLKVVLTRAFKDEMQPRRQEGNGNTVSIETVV
# Source text: (§1) Human and rat Mas receptors were either transiently or stably expressed in HEK293 cells. For transient transfections, human or rat Mas in pHM6 vector were transfected into HEK293 cells using Lipofectamine® (Invitrogen #18324-012). HEK293 cells transfected with empty pHM6 vector were used as a control. For generation of stable cell lines, cDNA expression plasmids encoding human or rat Mas genes and the neo^r gene were transfected into HEK293 cells (ATCC# CRL-1573) using Lipofectamine® (Invitrogen) according to the manufacturer's instructions. Stable receptor expressing pools were then generated over 3 weeks by standard techniques in the presence of 500 μg/mL Geneticin® (Gibco). Individual receptor stable pools were dilution cloned using standard techniques and clones were comparatively evaluated in inositol phosphate accumulation assays. Preferred clones were banked and cultured as needed. HEK293 cells were used as controls. The 384 well IP-One HTRF® Assay (Cisbio #62P1APEJ) was performed as described by the manufacturer's protocol. Cells were plated in at 100,000 cells per well in 15 μL DMEM (Gibco #11960) and incubated in a CO2 incubator at 37° C. for 2 h. Five μL of compounds diluted in 2× stimulation buffer plus 0.4% BSA (Sigma (#A3059) were added to each well and serial diluted IP1 standards (Cisbio #62IP1CDA) were also added to corresponding wells at this step. After the cells were incubated for 4 h in a CO2 incubator at 37° C., d2-labeled IP1 and cryptate-labeled anti-IP1 monoclonal antibody diluted in lysis buffer were added sequentially in 10 μL per well and the assay plates were kept in the dark at room temperature overnight. Ratiometric measurements of fluorescence emission at 665 nm and 620 nm were obtained using a Pherastar fluorometer (BMG Labtech). IP1 levels in each well were calculated according to the standard curves on each plate. IC50 values were obtained by fitting data to a nonlinear curve-fitting program (GraphPad Software, Inc., La Jolla Calif.).
# [4] = molecular target: T2, human Mas receptor (Homo sapiens, UniProt P04201); assay: HTRF IP1 assay, HEK293 cells expressing human Mas receptor; type: cell-based
# T2 construct: expressed in transfected cells; host or cells: HEK293 (ATCC CRL-1573)
# T2 sequence (P04201 1-325): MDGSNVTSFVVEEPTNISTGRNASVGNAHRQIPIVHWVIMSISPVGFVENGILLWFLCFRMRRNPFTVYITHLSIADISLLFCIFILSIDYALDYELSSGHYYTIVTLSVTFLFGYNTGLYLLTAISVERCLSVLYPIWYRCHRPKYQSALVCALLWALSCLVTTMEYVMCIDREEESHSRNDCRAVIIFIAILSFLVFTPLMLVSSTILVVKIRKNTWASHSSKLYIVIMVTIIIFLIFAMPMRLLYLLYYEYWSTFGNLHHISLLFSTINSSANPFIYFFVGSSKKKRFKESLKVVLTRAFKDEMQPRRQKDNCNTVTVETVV
# Source text: as §1
# [5] = system: control HEK293 cells; assay: HTRF IP1 assay in control HEK293 cells; type: cell-based; conditions: IP assay
# Source text: Human and rat Mas receptors were either transiently or stably expressed in HEK293 cells. For transient transfections, human or rat Mas in pHM6 vector were transfected into HEK293 cells using Lipofectamine® (Invitrogen #18324-012). HEK293 cells transfected with empty pHM6 vector were used as a control. For generation of stable cell lines, cDNA expression plasmids encoding human or rat Mas genes and the neo^r gene were transfected into HEK293 cells (ATCC# CRL-1573) using Lipofectamine® (Invitrogen) according to the manufacturer's instructions. Stable receptor expressing pools were then generated over 3 weeks by standard techniques in the presence of 500 μg/mL Geneticin® (Gibco). Individual receptor stable pools were dilution cloned using standard techniques and clones were comparatively evaluated in inositol phosphate accumulation assays. Preferred clones were banked and cultured as needed. HEK293 cells were used as controls. The 384 well IP-One HTRF® Assay (Cisbio #62P1APEJ) was performed as described by the manufacturer's protocol. Cells were plated in at 100,000 cells per well in 15 μL DMEM (Gibco #11960) and incubated in a CO2 incubator at 37° C. for 2 h. […] IP1 levels in each well were calculated according to the standard curves on each plate. […]
# [6] = system: Male Sprague-Dawley rats; assay: Coronary artery ligation model, LV area at risk and infarct size (Example 5.6); type: in vivo, rat; conditions: 10 mg/kg i.v. bolus 10 min before ligation or 3 min before reperfusion; 30 min ischemia, 2 h reperfusion
# [7] = system: isolated perfused rat hearts; assay: Ex vivo coronary flow, Langendorff perfused isolated rat hearts
# Protocol: Coronary flow was measured in male Mas^−/− and Mas^+/+ mice, and in male Sprague-Dawley rats using Langendorff perfused isolated hearts. Freshly isolated hearts were placed on a Langendorff apparatus (Harvard Apparatus) and perfused at a constant pressure of 80 mmHg with a modified Krebs-Henseleit buffer solution (Sigma K3753) and aerated with 95% oxygen and 5% carbon dioxide, pH 7.35-7.4. The temperature was maintained at 37° C. by surrounding the heart with a water-heated glassware chamber. Coronary flow was measured using a flow measurement system (Harvard Apparatus) which included the transit time flow meter and a flow probe built into an adaptor block located at the perfusate inflow port. Data were recorded continuously using an ISOHEART data acquisition system (Harvard Apparatus). After a 20-min equilibration period, Mas compounds were added to the perfusion buffer reservoir at the desired concentration (agonist AR234960 at 1 μM, or inverse agonist AR244555 at 5 μM) and coronary flow was recorded for 10 min
# To determine the role of the Mas-Gq-PLC pathway in regulating coronary flow, the Mas inverse agonist AR244555 (5 μM) or the PLC inhibitor U-73122 (0.5 μM) was added to the perfusion buffer for 10 min and then the agonist AR234960 (1 μM) was added to the perfusion buffer. Coronary flow was recorded for another 10 min Changes in coronary flow induced by AR234960 were calculated as percentage of the coronary flow at 10 min following AR234960 treatment, relative to the coronary flow measured immediately prior to addition of AR234960. This protocol allowed for measurement of agonist mediated vasoconstrictor activity, and accounted for changes in baseline coronary flow due to inverse agonist treatment alone.
# To determine whether Mas agonist-induced changes in coronary flow were endothelium-dependent, the responses in Langendorff perfused hearts were measured after chemical removal of endothelium with sodium deoxycholate. After a 20-min equilibration period, sodium deoxycholate was added to the perfusion buffer at 0.2 mg/mL for 3 min and then washed out for 10 min Mas compounds were added and coronary flow was recorded for 10 min Adenosine (1 μM), a coronary vasodilator that targets the endothelium, was used as a control to verify effective removal of endothelium.
# [8] = system: isolated perfused rat hearts; assay: Global ischemia-reperfusion in Langendorff perfused rat hearts (coronary flow, arrhythmias)
# Protocol: For ischemia-reperfusion experiments, Langendorff perfused rat hearts were equilibrated for 20 min and then baseline coronary flow was recorded for 10 min Thereafter, all hearts were subjected to 30 min of global ischemia by stopping perfusate flow, followed by 30 min of reperfusion with either vehicle (0.01% DMSO), Mas agonist AR234960 (1 μM) or Mas inverse agonist AR244555 (5 μM) added to the perfusion buffer. Electrocardiography was also continuously recorded during the observation period through electrodes attached directly to the surface of the ventricles to detect cardiac arrhythmias during reperfusion.
molecule,measurement,setting,value
"O=C(Nc1ccc(Cl)cc1N1CCN(CCC(F)(F)F)CC1)c1c(F)cccc1F [AR305352, N-(4-chloro-2-(4-(3,3,3-trifluoropropyl)piperazin-1-yl)phenyl)-2,6-difluorobenzamide]",foot-pad inflammation / paw swelling,[1],suppress foot-pad inflammation in a dose-dependent manner
NPFF,EC50,[2],~400 nM
"C=CCCN1CCC2(CC1)CN(C(=O)c1c(F)cccc1F)c1ccc(Cl)cc12 [AR244555, 1′-(but-3-enyl)-1,2-dihydro-5-chloro-1-(2,6-difluoro-benzoyl)-spiro[3H-indole-3,4′-piperidine]]",IC50,"[3]; IP assay, HEK293 cells stably expressing rat Mas, 4 h, means ± SEM, read-out: Rat IC50",348 ± 67 nM
same,"ligand activity in IP assay, rat Mas","[3]; Table C, line under Rat IC50",(inverse agonist)
same,IC50,"[4]; IP assay, HEK293 cells stably expressing human Mas, 4 h, means ± SEM, read-out: Human IC50",186 ± 11 nM
same,"ligand activity in IP assay, human Mas","[4]; Table C, line under Human IC50",(inverse agonist)
same,effects in control HEK293 cells,[5],There were detected effects
same,infarct size (percentage of the area at risk) vs vehicle,[6],reduced infarct size by about half; also recorded: cardioprotective
same,coronary flow in isolated perfused rat hearts,"[7]; AR234960 1 μM, AR244555 5 μM, 10 min",modest but significant increase; also recorded: significantly increased
same,decrease in coronary flow induced by AR234960 (1 μM) after pretreatment,[7]; pretreatment 10 min: AR244555 5 μM or U-73122 0.5 μM,prevented the decrease
same,arrhythmias during reperfusion,"[8]; 5 μM, six hearts",no arrhythmias were observed
same,coronary flow during reperfusion compared to vehicle treated hearts,"[8]; 30 min global ischemia, 30 min reperfusion, AR234960 1 μM, AR244555 5 μM in perfusate during reperfusion",significantly elevated coronary flow
Nc1ncnc2c1ncn2[C@@H]1O[C@H](CO)[C@@H](O)[C@H]1O [adenosine],compound-mediated change in coronary flow in endothelium denuded hearts,"[7]; after sodium deoxycholate, AR234960 1 μM, adenosine 1 μM",abolished
